Measurements as given in US20260315454A1, “Use of quinoline-4-carboxylic acid in the preparation of anti-aging product as well as product for protecting liver and promoting liver regeneration” (Guangzhou Riju Trade Development Co., Ltd., priority 2023, published 2026).

Legend:
[1] = tested on: High-generation MSCs (Old MSCs); test: CCK8 assay, proliferation of high-generation mesenchymal stem cells; format: cell-based; conditions: P10-15 MSCs; 50 μM, 100 μM, and 200 μM QCA in the medium
Procedure: (§1) 4. High-generation MSCs (Old MSCs) at P10-15 were plated in a 96 plate, and 50 μM, 100 μM, and 200 μM of QCA were added to the medium, respectively. The medium without adding QCA was used as a control. Low-generation MSCs (Young MSCs) at P4-7, high-generation MSCs (Old MSCs) at P10-15, as well as high-generation MSCs respectively treated with 50 μM and 200 μM QCA for 72 h, were subjected to Ki67 immunofluorescence staining, and the results were shown in FIG. 4B.

[2] = tested on: High-generation MSCs (Old MSCs); test: Ki67 immunofluorescence staining of high-generation mesenchymal stem cells; format: cell-based; conditions: P10-15 MSCs; 50 μM and 200 μM QCA for 72 h
Procedure: as §1

[3] = tested on: High-generation MSCs (Old MSCs); test: TUNEL staining of high-generation mesenchymal stem cells; format: cell-based; conditions: P10-15 MSCs; 50 μM and 200 μM QCA for 72 h
Procedure: (§2) 5. Low-generation MSCs (Young MSCs) at P4-7, high-generation MSCs (Old MSCs) at P10-15, as well as old MSCs respectively treated with 50 μM and 200 μM QCA for 72 h were subjected to TUNEL staining, and the results were shown in FIG. 5A. Old MSCs with 50 μM QCA were added to the medium all the time (a fresh medium containing QCA was changed every 2-3 days), and the medium without adding QCA was used as a control. The cells were passaged for 3 consecutive generations (passaged when the cells were 80-90% confluent) before being used for β-Gal staining tests, and the results were shown in FIG. 5B.

[4] = tested on: High-generation MSCs (Old MSCs); test: β-Gal staining of high-generation mesenchymal stem cells; format: cell-based; conditions: 50 μM QCA all the time, passaged for 3 consecutive generations
Procedure: as §2

W1118 fruit flies = test: lifespan test for fruit flies (survival curves); format: in vivo; conditions: male W1118; 115 μL of QCA (100 mM, 2 mg QCA/tube) in medium; days 20-30 and 40-50
Procedure: (6) The regular medium for rearing fruit flies was added with a preservative and dispensed. After which, 115 μL of QCA (100 mM, equivalent to 2 mg QCA/tube) was added dropwise to the medium, and the same volume of 95% ethanol was added to the control tube. On days 20-30 and 40-50 of fruit flies rearing, the tubes were replaced with QCA-containing rearing tubes for rearing. 3 male W1118 fruit flies and 3 virgin W1118 fruit flies were added to each rearing tube and bred for 3-5 days for a total of 20 tubes. The parental fruit flies were cleared after about 5-6 days, and then adult occurred in about 10 days. A round of picking male fruit flies within 1 day after emergence was performed at a fixed time point each day for a total of 400 fruit flies, in which 20 fruit flies were placed in each tube labeled with the name, date, and number for a total of 20 tubes. Fruit flies were reared at 25° C., 50% humidity and 12 h light/12 h dark, the number of dead fruit flies in the tubes was counted and recorded every day, and the rearing tubes were changed every 3-4 days. The lifespan test for fruit flies in each group needed to be repeated three times independently and the recordings were entered into statistical software for analysis.

fruit flies = test: tube-climbing test of fruit flies; format: in vivo; conditions: 20 male fruit flies; 17.5 cm marker; performance at 120 s
[5] = tested on: 21 month-old C57BL6/J mice; test: observation of coat status and dermatitis in old mice; format: in vivo; conditions: 5 mg/kg QCA by consecutive gavage for 4 months
Procedure: (§3) (7) 21 month-old C57BL6/J mice were randomly divided into control and QCA groups. 0.9% saline was given to the control group (n=7 for male mice, and n=12 for female mice); and 5 mg/kg QCA was given to the QCA group (n=9 for male mice, and n=13 for female mice) by consecutive gavage for 4 months. […] The test mice were placed on the grip strength meter and the tail of the mice was gently pulled, so that the mice grasped the probe forcefully with the forelimbs and hindlimbs. The readings on the grip strength meter were recorded when the mice exerted the maximum force, the arm strength value in mice were obtained by averaging 3 repetitions of the measurements, and the results were shown in FIG. 7B. Blood was taken from the tail vein of mice 4 months after administration by gavage, the proportion of neutrophils (NEU) was measured by routine blood test, and the results were shown in FIG. 7C. […] The mice were examined periodically for the presence of spontaneous tumors, and the number of mice with spontaneous tumors in each group was recorded. […] Concentrations of alanine aminotransferase (ALT), aspartate aminotransferase (AST), and lactate dehydrogenase (LDH) in plasma were measured using a HITACHI 7600 Series (Japan) biochemical detector, and the results were shown in FIG. 7F. […]

[6] = tested on: 21 month-old C57BL6/J mice; test: grip strength meter, arm strength of old mice; format: in vivo; conditions: 5 mg/kg QCA by consecutive gavage for 4 months
Procedure: as §3

[7] = tested on: 21 month-old C57BL6/J mice; test: chronic inflammation in old mice (proportion of neutrophils by routine blood test, serum TNF-α by ELISA); format: in vivo; conditions: 5 mg/kg QCA by consecutive gavage for 4 months
Procedure: as §3

[8] = tested on: 21 month-old C57BL6/J mice; test: plasma ALT, AST and LDH in old mice; format: in vivo; conditions: aged mice, 5 mg/kg QCA by consecutive gavage for 4 months
Procedure: as §3

[9] = tested on: 21 month-old C57BL6/J mice; test: survival curves of old mice; format: in vivo; conditions: 5 mg/kg QCA by gavage; Ctrl (n=19) and QCA (n=26)
Procedure: (7) 21 month-old C57BL6/J mice were randomly divided into control and QCA groups. […] The test mice were placed on the grip strength meter and the tail of the mice was gently pulled, so that the mice grasped the probe forcefully with the forelimbs and hindlimbs. The readings on the grip strength meter were recorded when the mice exerted the maximum force, the arm strength value in mice were obtained by averaging 3 repetitions of the measurements, and the results were shown in FIG. 7B. Blood was taken from the tail vein of mice 4 months after administration by gavage, the proportion of neutrophils (NEU) was measured by routine blood test, and the results were shown in FIG. 7C. […] The mice were examined periodically for the presence of spontaneous tumors, and the number of mice with spontaneous tumors in each group was recorded. […] Concentrations of alanine aminotransferase (ALT), aspartate aminotransferase (AST), and lactate dehydrogenase (LDH) in plasma were measured using a HITACHI 7600 Series (Japan) biochemical detector, and the results were shown in FIG. 7F. Survival times were recorded to make the survival curves of the mice in the Ctrl (n=19) and QCA (n=26) groups, and the results were shown in FIG. 7G.

[10] = tested on: C57BL6/J mice older than 18 months; test: ⅔ partial hepatectomy model in old mice, liver to body weight ratio; format: in vivo; conditions: 5 mg/kg QCA intraperitoneally
Procedure: (§4) (8) Establishment of ⅔ partial hepatectomy model in old mice (⅔PHx): C57BL6/J mice older than 18 months were anesthetized with 2% isoflurane by inhalation and underwent a median abdominal incision. The left external and median lobes of the liver were resected separately with 4-0 silk sutures, and the associated vessels and bile ducts were ligated. Mice were injected intraperitoneally with 5 mg/kg QCA or an equal volume of DMSO 2 h before ⅔PHx surgery, and 24 h, 48 h and 72 h after ⅔PHx surgery, respectively. Mice were sacrificed at 6 h, 48 h and 168 h after surgery, respectively, and liver specimens and plasma were collected. The postoperative survival time of mice was recorded and used to plot survival curves. Mice were weighed in advance and livers were weighed after liver extraction so that the liver to body weight ratio could be calculated. Concentrations of alanine aminotransferase (ALT), aspartate aminotransferase (AST), and lactate dehydrogenase (LDH) in plasma were measured using a HITACHI 7600 Series (Japan) biochemical detector. Mouse liver samples collected at specific time points were fixed in 4% paraformaldehyde overnight and then embedded in paraffin. A 3 μm-thick paraffin section was made for subsequent Ki67 immunohistochemical staining, and the specific procedure was as follows: after subjecting to antigen repairing in EDTA (pH 8.0), the sections were incubated with a primary antibody overnight at 4° C., and then incubated with a secondary antibody at 37° C. for 1 h. Sections were stained with diaminobenzidine and hematoxylin, and then visualized and imaged with an optical microscope.

[11] = tested on: C57BL6/J mice older than 18 months; test: ⅔ partial hepatectomy model in old mice, plasma ALT, AST and LDH; format: in vivo; conditions: 5 mg/kg QCA intraperitoneally 2 h before and 24 h, 48 h and 72 h after ⅔PHx
Procedure: as §4, with “A 3 μm-thick paraffin section was made for subsequent Ki67 immunohistochemical staining, and the specific procedure was as follows: after subjecting to antigen repairing in EDTA (pH 8.0), the sections were incubated with a primary antibody overnight at 4° C., and then incubated with a secondary antibody at 37° C. for 1 h. Sections were stained with diaminobenzidine and hematoxylin, and then visualized and imaged with an optical microscope.” left out

[12] = tested on: C57BL6/J mice older than 18 months; test: ⅔ partial hepatectomy model in old mice, survival; format: in vivo; conditions: 5 mg/kg QCA intraperitoneally 2 h before and 24 h, 48 h and 72 h after ⅔PHx
Procedure: as §4, with “A 3 μm-thick paraffin section was made for subsequent Ki67 immunohistochemical staining, and the specific procedure was as follows: after subjecting to antigen repairing in EDTA (pH 8.0), the sections were incubated with a primary antibody overnight at 4° C., and then incubated with a secondary antibody at 37° C. for 1 h. Sections were stained with diaminobenzidine and hematoxylin, and then visualized and imaged with an optical microscope.” left out

[13] = tested on: C57BL6/J mice older than 18 months; test: ⅔ partial hepatectomy model in old mice, Ki67 immunohistochemical staining of liver; format: in vivo; conditions: 5 mg/kg QCA intraperitoneally 2 h before and 24 h, 48 h and 72 h after ⅔PHx
Procedure: as §4, with “A 3 μm-thick paraffin section was made for subsequent Ki67 immunohistochemical staining, and the specific procedure was as follows: after subjecting to antigen repairing in EDTA (pH 8.0), the sections were incubated with a primary antibody overnight at 4° C., and then incubated with a secondary antibody at 37° C. for 1 h. Sections were stained with diaminobenzidine and hematoxylin, and then visualized and imaged with an optical microscope.” left out

## O=C(O)c1ccnc2ccccc12 [quinoline-4-carboxylic acid]
[1]
  cell proliferation (CCK8 assay): can promote cell proliferation
[2]
  cell proliferation (Ki67 immunofluorescence staining): can promote cell proliferation
[3]
  nuclear DNA breakage (TUNEL staining): reduces nuclear DNA breakage
[4]
  cell aging (β-Gal staining): retards cell aging
W1118 fruit flies
  lifespan of fruit flies (survival curves): prolongs the lifespan of fruit flies
Fruit flies
  exercise capacity (tube-climbing test): enhances their exercise capacity
[5]
  symptoms such as poor coat and dermatitis: can reduce the symptoms such as poor coat and dermatitis in old mice
[6]
  arm strength (reflecting the muscle strength): enhance the arm strength
[7]
  chronic inflammation (neutrophils, TNF-α): down-regulate the chronic inflammation
[8]
  enzymatic indexes of liver injury (ALT, AST, LDH): down-regulate the chronic inflammation and enzymatic indexes of liver injury in aged mice
[9]
  lifespan of the mice (survival curves): prolong the lifespan of the mice
[10]; 6 h after hepatectomy
  regenerative liver to body weight ratio at 6 h: does not significantly increase
[10]; 48 h after hepatectomy
  regenerative liver to body weight ratio at 48 h: significantly increases
[10]; 168 h after hepatectomy
  regenerative liver to body weight ratio at 168 h: does not significantly increase
[11]
  enzymatic indexes of liver injury (ALT, AST, LDH) after hepatectomy: attenuates the enzymatic indexes of liver injury
[12]
  survival rate of mice after hepatectomy: improves the survival rate of mice after hepatectomy
[13]
  Ki67-positive cells of liver tissue (immunohistochemical staining): more Ki67-positive cells of liver tissue in the QCA group
